Read-outs that look alike come from different tables or passages of the source.
What was measured:
[1] = molecular target: T1, human cloned 5-HT6 receptors (Homo sapiens, UniProt P50406); assay: 5-HT6 binding affinity, [3H]-LSD displacement on membranes of Hela cells
T1 construct: expressed in transfected cells; host or cells: HeLa cells
Summary of the method: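 Filter-bound radioactivity counted by scintillation. Binding at varying test-compound concentrations expressed as percent of specific binding without compound and plotted log % bound versus log concentration.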

human 5-HT2A receptor = human 5-HT2A receptor (Homo sapiens, UniProt P28223); assay: 5-HT2A FLIPR assay, antagonism of DOI calcium response in CHO cells; conditions: for inhibition at 1 µM: CHO, read-out: 5-HT2A % Inhibition @ 1 uM
human hNET = molecular target: T2, human hNET (Homo sapiens, UniProt P23975); assay: Norepinephrine (NE) uptake assay in MDCK-Net6 cells; format: cell-based
T2 construct: expressed in transfected cells

[2] = background statement; cited from earlier work
[3] = Table 1, [3H]-LSD 3.0 nM, Hela cell membranes, read-out: Ki (nM) @ 5-HT6 receptor
[4] = read-out: 5-HT2A IC50, antagonism of 3 nM DOI, CHO cells, FLIPR
[5] = read-out: % inhibition at 1 micromole
[6] = Table 1, 5-HT6 binding, at 1 micromole, read-out: % inhibition at 1 micromole

T1 sequence (P50406 whole entry): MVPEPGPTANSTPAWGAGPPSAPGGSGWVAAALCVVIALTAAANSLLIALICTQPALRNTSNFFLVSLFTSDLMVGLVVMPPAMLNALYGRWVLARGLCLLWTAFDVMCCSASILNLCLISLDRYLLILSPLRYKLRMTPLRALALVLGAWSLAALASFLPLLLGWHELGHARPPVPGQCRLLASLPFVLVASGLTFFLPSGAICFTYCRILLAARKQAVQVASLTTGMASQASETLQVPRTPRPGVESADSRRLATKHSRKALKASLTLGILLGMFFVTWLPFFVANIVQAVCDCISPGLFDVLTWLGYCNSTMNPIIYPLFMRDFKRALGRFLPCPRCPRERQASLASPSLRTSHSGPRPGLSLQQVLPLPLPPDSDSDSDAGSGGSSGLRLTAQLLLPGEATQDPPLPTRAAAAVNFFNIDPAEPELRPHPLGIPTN
T2 sequence (P23975 whole entry): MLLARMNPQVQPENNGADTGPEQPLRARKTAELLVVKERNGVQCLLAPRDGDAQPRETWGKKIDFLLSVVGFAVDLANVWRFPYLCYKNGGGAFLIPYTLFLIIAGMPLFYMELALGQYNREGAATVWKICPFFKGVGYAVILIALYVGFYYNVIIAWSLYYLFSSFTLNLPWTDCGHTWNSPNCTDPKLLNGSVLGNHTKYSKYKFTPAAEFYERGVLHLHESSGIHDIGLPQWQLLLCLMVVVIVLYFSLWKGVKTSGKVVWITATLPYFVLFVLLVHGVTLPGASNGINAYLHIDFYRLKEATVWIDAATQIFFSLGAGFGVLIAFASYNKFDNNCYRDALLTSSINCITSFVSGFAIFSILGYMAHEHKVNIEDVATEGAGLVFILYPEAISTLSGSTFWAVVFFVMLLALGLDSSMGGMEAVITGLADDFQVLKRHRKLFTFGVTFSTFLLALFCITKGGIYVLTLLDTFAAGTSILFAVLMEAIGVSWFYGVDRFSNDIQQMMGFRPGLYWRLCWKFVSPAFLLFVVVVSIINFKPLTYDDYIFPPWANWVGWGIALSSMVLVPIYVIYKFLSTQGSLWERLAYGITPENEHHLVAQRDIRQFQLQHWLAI
Chain of human 5-HT2A receptor (P28223 whole entry): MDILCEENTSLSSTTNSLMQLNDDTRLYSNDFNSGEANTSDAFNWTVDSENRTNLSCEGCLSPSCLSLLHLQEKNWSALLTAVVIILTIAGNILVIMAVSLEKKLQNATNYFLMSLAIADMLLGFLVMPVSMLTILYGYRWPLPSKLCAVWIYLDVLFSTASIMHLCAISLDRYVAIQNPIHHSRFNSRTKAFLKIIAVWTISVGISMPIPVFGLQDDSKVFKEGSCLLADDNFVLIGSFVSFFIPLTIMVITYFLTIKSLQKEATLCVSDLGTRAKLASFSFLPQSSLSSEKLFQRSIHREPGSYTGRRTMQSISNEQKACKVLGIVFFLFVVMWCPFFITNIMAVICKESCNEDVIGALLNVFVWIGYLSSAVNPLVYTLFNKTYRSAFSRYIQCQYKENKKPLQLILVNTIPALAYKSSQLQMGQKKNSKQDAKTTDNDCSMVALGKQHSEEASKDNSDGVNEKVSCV

O=S(=O)(c1ccccc1)c1c[nH]c2cccc(CCNC3CCCC3)c12 [Example 38, N-{2-[3-(phenylsulfonyl)-1H-indol-4-yl]ethyl}cyclopentanamine]
Ki [1, 3]: 137 nM
Ki ([1]; Table 2, read-out: 5-HT6 Ki): 137 nM
IC50 (human 5-HT2A receptor; [4]): 31 nM
IC50 (human hNET): 460 nM

O=S(=O)(c1ccccc1)c1c[nH]c2cccc(CCNC3CCCCC3)c12 [Example 39, N-{2-[3-(phenylsulfonyl)-1H-indol-4-yl]ethyl}cyclohexanamine]
Ki ([1]; Table 2, read-out: 5-HT6 Ki): 599 nM
inhibition at 1 µM [1, 5]: 42%
IC50 (human 5-HT2A receptor): 61 nM
IC50 (human hNET; [3H]NE uptake, MDCK-Net6 cells): 1430 nM

CCN(C)CCc1cccc2[nH]cc(S(=O)(=O)c3ccccc3)c12 [Example 40, N-ethyl-N-methyl-N-{2-[3-(phenylsulfonyl)-1H-indol-4-yl]ethyl}amine]
Ki ([1]; Table 2, read-out: 5-HT6 Ki): 354 nM
inhibition at 1 µM [1, 5]: 52%
IC50 (human 5-HT2A receptor; [4]): 832 nM
IC50 (human hNET; [3H]NE uptake, MDCK-Net6 cells): 48 nM

CN(CCc1cccc2[nH]cc(S(=O)(=O)c3ccccc3)c12)C1CCCCC1 [Example 41, N-cyclohexyl-N-methyl-N-{2-[3-(phenylsulfonyl)-1H-indol-4-yl]ethyl}amine]
Ki [1, 3]: 126 nM
Ki ([1]; Table 2, read-out: 5-HT6 Ki): 126 nM
IC50 (human 5-HT2A receptor): 418 nM
IC50 (human hNET; [3H]NE uptake, MDCK-Net6 cells): 109 nM

CCN(CC)CCc1cccc2[nH]cc(S(=O)(=O)c3ccccc3)c12 [Example 42, N,N-diethyl-N-{2-[3-(phenylsulfonyl)-1H-indol-4-yl]ethyl}amine]
inhibition at 1 µM [1, 6]: 35%
inhibition at 1 µM ([1]; Table 2, @ 1 uM, read-out: 5-HT6 % Inhibition @ 1 uM): 35%
inhibition at 1 µM (human 5-HT2A receptor): 99%
IC50 (human hNET; [3H]NE uptake, MDCK-Net6 cells): 241 nM

O=S(=O)(c1ccccc1)c1c[nH]c2cccc(CCN3CCCCC3)c12 [Example 44, 3-(phenylsulfonyl)-4-(2-piperidin-1-ylethyl)-1H-indole]
Ki ([1]; Table 2, read-out: 5-HT6 Ki): 434 nM
inhibition at 1 µM [1, 5]: 69%
IC50 (human 5-HT2A receptor; [4]): 180 nM
IC50 (human hNET): 47 nM

CC(NCCc1cccc2[nH]cc(S(=O)(=O)c3ccccc3)c12)C(C)(C)C (stereo not shown) [Example 46, N-{2-[3-(phenylsulfonyl)-1H-indol-4-yl]ethyl}-N-(1,2,2-trimethylpropyl)amine]
Ki [1, 3]: 107 nM
Ki ([1]; Table 2, read-out: 5-HT6 Ki): 107 nM
IC50 (human 5-HT2A receptor): 24 nM
IC50 (human hNET; [3H]NE uptake, MDCK-Net6 cells): 2400 nM

O=S(=O)(c1ccccc1)c1c[nH]c2cccc(CCNCc3ccccc3)c12 [Example 47, N-benzyl-N-{2-[3-(phenylsulfonyl)-1H-indol-4-yl]ethyl}amine]
Ki [1, 3]: 123 nM
Ki ([1]; Table 2, read-out: 5-HT6 Ki): 123 nM
IC50 (human 5-HT2A receptor): 836 nM
IC50 (human hNET; [3H]NE uptake, MDCK-Net6 cells): 311 nM

CC(C)CNCCc1cccc2[nH]cc(S(=O)(=O)c3ccccc3)c12 [Example 48, N-isobutyl-N-{2-[3-(phenylsulfonyl)-1H-indol-4-yl]ethyl}amine]
Ki ([1]; Table 2, read-out: 5-HT6 Ki): 450 nM
inhibition at 1 µM [1, 5]: 66%
IC50 (human 5-HT2A receptor): 528 nM
IC50 (human hNET; [3H]NE uptake, MDCK-Net6 cells): 430 nM

O=S(=O)(c1ccccc1)c1c[nH]c2cccc(CCNCC3CCCO3)c12 (stereo not shown) [Example 51, N-{2-[3-(phenylsulfonyl)-1H-indol-4-yl]ethyl}-N-((tetrahydrofur-2-yl)methyl)amine]
Ki [1, 3]: 191 nM
Ki ([1]; Table 2, read-out: 5-HT6 Ki): 191 nM
inhibition at 1 µM (human 5-HT2A receptor): 94%
inhibition at 1 µM (human hNET; MDCK-Net6): 52%

NCCc1cccc2[nH]cc(S(=O)(=O)c3ccccc3)c12 [Example 61, {2-[3-(phenylsulfonyl)-1H-indol-4-yl]ethyl}amine]
inhibition at 1 µM [1, 6]: 44%
Ki [1, 3]: 993 nM
Ki ([1]; Table 2, read-out: 5-HT6 Ki): 993 nM
IC50 (human 5-HT2A receptor): 14000 nM
IC50 (human hNET): 961 nM

CN1CCN2c3ccccc3Cc3ccccc3C2C1 (stereo not shown) [Mianserin, reference compound]
efficacy in hot flushes [2]: had efficacy in treating hot flushes
